According to patent publication US20250136606A1, “MODULATORS OF TRPML, THEIR COMPOSITIONS AND METHODS OF USE” (Caraway Therapeutics, Inc., priority 2021, published 2025):
Like-named read-outs stand apart in the source and are kept apart here.

Columns and labels:
Assay type in all cases: cell-based
[1] = biological target: T1, TRPML2 (Homo sapiens, UniProt Q8IZK6); assay: Fluorescent TRPML2 assay (performed as for TRPML1, substituting the TRPML2 subtype)
T1 construct: expressed in transfected cells
T1 sequence (Q8IZK6 1-566): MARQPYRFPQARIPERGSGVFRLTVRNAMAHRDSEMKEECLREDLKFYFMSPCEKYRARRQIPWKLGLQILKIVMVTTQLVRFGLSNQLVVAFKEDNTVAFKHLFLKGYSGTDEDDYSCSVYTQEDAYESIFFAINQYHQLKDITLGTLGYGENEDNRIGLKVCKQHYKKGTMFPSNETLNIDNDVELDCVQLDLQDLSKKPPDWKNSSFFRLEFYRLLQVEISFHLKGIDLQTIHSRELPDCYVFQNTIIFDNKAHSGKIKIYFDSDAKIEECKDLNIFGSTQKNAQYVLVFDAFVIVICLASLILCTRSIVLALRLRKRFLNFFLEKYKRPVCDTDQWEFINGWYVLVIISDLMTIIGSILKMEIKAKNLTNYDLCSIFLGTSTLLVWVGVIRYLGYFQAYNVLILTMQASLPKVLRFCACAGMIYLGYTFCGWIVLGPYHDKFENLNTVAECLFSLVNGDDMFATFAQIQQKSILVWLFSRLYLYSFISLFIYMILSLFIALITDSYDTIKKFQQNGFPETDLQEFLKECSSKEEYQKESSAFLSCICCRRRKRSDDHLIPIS
How it was run: (§1)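 HEK-293 Trex cells with doxycycline-induced (0.5 ug/mL) surface-directed human TRPML subtype, loaded with 1 μM Fluo4-AM, resuspended in Ringer's with 10 mM calcium. Compounds at 20 μM to 6 nM final in half-log steps, triplicate; fluorescence ex 480/em 540; EC50 by non-linear regression versus plate controls.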

[2] = biological target: TRPML1 (Homo sapiens, UniProt Q9GZU1); assay: Fluorescent TRPML1 assay (Fluo4-AM calcium fluorescence in doxycycline-induced HEK-293 Trex cells)
How it was run: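 hTRPML1 (mutated for cell-surface expression) in HEK-293 Trex, dox 0.5 ug/mL o/n; Fluo4-AM 1 uM ~60 min, then ~60 min de-esterification, dark; modified Ringer's + 10 mM Ca. Cmpds 20 uM–6 nM final, half-log, n=3. Ex480/Em540; % activity vs ctrls; EC50 by nonlinear regression.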

[3] = biological target: T2, TRPML3 (Homo sapiens, UniProt Q8TDD5); assay: Fluorescent TRPML3 assay (performed as for TRPML1, substituting the TRPML3 subtype)
T2 construct: expressed in transfected cells
T2 sequence (Q8TDD5 1-553): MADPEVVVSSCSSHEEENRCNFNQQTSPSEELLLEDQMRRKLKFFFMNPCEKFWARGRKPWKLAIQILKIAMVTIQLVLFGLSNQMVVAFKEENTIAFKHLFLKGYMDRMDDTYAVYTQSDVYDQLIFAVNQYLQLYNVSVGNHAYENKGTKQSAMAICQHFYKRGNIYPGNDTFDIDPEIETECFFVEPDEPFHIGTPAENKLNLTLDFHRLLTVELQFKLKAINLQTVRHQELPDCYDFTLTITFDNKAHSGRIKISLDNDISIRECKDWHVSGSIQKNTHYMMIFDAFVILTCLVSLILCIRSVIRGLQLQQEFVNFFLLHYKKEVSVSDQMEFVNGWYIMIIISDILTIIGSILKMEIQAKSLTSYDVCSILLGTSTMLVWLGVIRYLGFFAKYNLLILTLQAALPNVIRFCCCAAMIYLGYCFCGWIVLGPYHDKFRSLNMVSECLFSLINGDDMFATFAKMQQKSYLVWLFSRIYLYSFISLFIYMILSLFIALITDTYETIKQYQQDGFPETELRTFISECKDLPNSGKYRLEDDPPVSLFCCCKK
How it was run: as §1

Chain of TRPML1 (Q9GZU1 whole entry L15A/L16A/L577A/L578A, form open): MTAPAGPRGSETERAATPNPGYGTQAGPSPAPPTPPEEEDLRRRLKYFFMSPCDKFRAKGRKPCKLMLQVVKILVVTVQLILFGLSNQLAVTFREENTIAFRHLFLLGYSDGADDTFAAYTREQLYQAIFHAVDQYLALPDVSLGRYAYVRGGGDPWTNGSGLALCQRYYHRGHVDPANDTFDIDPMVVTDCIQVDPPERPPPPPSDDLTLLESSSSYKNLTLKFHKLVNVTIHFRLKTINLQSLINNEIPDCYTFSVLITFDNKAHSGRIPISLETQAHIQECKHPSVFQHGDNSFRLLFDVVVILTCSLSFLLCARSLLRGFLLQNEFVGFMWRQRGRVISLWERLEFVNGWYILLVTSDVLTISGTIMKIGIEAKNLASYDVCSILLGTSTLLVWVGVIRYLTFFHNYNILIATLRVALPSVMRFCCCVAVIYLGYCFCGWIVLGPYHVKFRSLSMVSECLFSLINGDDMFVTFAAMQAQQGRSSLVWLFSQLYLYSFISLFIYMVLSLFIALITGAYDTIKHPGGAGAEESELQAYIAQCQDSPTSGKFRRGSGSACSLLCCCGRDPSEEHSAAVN

| EC50 [1] [nM] | EC50 [2] [nM] | EC50 [3] [nM] | EC50 ([1]; fluorescent calcium assay) [nM] | EC50 ([2]; fluorescent calcium assay) [nM] | EC50 ([3]; fluorescent calcium assay) [nM] | Structure (SMILES) |
| --- | --- | --- | --- | --- | --- | --- |
| 500 to 2000 | < 100 | 100 to 500 |  |  |  | [2H]C([2H])([2H])C(OC(=O)N1C[C@@H](C)N(c2ncnc3c2c(C(F)(F)F)cn3-c2cc(C#N)ccn2)C[C@H]1C)(C([2H])([2H])[2H])C([2H])([2H])[2H] [Compound 602, 2-(methyl-d3)propan-2-yl-1,1,1,3,3,3-d6 (2R,5R)-4-(7-(4-cyanopyridin-2-yl)-5-(trifluoromethyl)-7H-pyrrolo[2,3-d]pyrimidin-4-yl)-2,5-dimethylpiperazine-1-carboxylate] |
|  |  |  | 100 to 500 | < 100 | < 100 | Cc1cc(-n2cc(-c3ccccc3F)c3c(N4CCN(C(=O)OC(C)(C)C)C[C@@H]4C)ncnc32)cc(C#N)n1 [Compound 444, tert-butyl (S)-4-(7-(2-cyano-6-methylpyridin-4-yl)-5-(2-fluorophenyl)-7H-pyrrolo[2,3-d]pyrimidin-4-yl)-3-methylpiperazine-1-carboxylate] |
| 100 to 500 | 100 to 500 | 100 to 500 |  |  |  | C[C@H]1CN(C(=O)OC(C)(C)C)CCN1c1ncnc2c1c(N(C)C1CC1)cn2-c1cccc(C#N)c1 [Compound 526] |
| 100 to 500 | < 100 | < 100 |  |  |  | C[C@@H]1CN(c2ncnc3c2c(C(F)F)cn3-c2cc(C#N)ccn2)[C@@H](C)CN1C(=O)OC1(C(F)(F)F)CCC1 [Compound 614, 1-(trifluoromethyl)cyclobutyl (2R,5S)-4-(7-(4-cyanopyridin-2-yl)-5-(difluoromethyl)-7H-pyrrolo[2,3-d]pyrimidin-4-yl)-2,5-dimethylpiperazine-1-carboxylate] |
|  |  |  | < 100 | < 100 | < 100 | C[C@@H]1CN(c2ncnc3c2c(C2CC2)cn3-c2ccc(F)c(F)c2)CCN1C(=O)OC(C)(C)C [Compound 109, tert-butyl (R)-4-(5-cyclopropyl-7-(3,4-difluorophenyl)-7H-pyrrolo[2,3-d]pyrimidin-4-yl)-2-methylpiperazine-1-carboxylate] |
|  |  |  | < 100 | < 100 | < 100 | CCCOc1cn(-c2cc(C#N)ccn2)c2ncnc(N3CCN(C(=O)OC(C)(C)C)C[C@@H]3C)c12 [Compound 487, tert-butyl (S)-4-(7-(4-cyanopyridin-2-yl)-5-propoxy-7H-pyrrolo[2,3-d]pyrimidin-4-yl)-3-methylpiperazine-1-carboxylate] |
| 100 to 500 | < 100 | < 100 |  |  |  | C[C@H]1CN(C(=O)OC(C)(C)C)CCN1c1nccc2c1c(N1CCC1)cn2-c1cccc(F)c1 [Compound 637, tert-butyl (S)-4-(3-(azetidin-1-yl)-1-(3-fluorophenyl)-1H-pyrrolo[3,2-c]pyridin-4-yl)-3-methylpiperazine-1-carboxylate] |
|  |  |  | 500 to 2000 | 100 to 500 | < 100 | CC(C)(C)OC(=O)N1CCN(c2ncnc3c2c(C2CC2)cn3-c2cc(F)cc(F)c2)C[C@H]1CF (single isomer, unassigned) [Compound 269] |
|  |  |  | 100 to 500 | 100 to 500 | 100 to 500 | C[C@@H]1CN(C(=O)OC(C)(C)C)CCN1c1ncnc2c1c(C1CC1)cn2-c1cccc(C#N)c1 [Compound 199, tert-butyl (R)-4-(7-(3-cyanophenyl)-5-cyclopropyl-7H-pyrrolo[2,3-d]pyrimidin-4-yl)-3-methylpiperazine-1-carboxylate] |
|  |  |  | > 2000 | 500 to 2000 | 100 to 500 | COc1cc(C#N)cc(-n2cc(C3CC3)c3c(N4CCN(C(=O)OC(C)(C)C)C[C@@H]4C)ncnc32)c1 [Compound 302, tert-butyl (S)-4-(7-(3-cyano-5-methoxyphenyl)-5-cyclopropyl-7H-pyrrolo[2,3-d]pyrimidin-4-yl)-3-methylpiperazine-1-carboxylate] |
| < 100 | < 100 | < 100 |  |  |  | Cc1cn(-c2cccc(C(F)(F)F)c2)c2ncnc(N3CCN(C(=O)OC(C)(C)C)C[C@@H]3C)c12 [Compound 684, tert-butyl (S)-3-methyl-4-(5-methyl-7-(3-(trifluoromethyl)phenyl)-7H-pyrrolo[2,3-d]pyrimidin-4-yl)piperazine-1-carboxylate] |
| 500 to 2000 | 100 to 500 | 100 to 500 |  |  |  | C[C@@H]1CN(c2ncnc3c2c(C(F)(F)F)cn3-c2cc(F)cc(F)c2)[C@@H](C)CN1C(=O)OC1(C)CC1 [Compound 661, 1-methylcyclopropyl (2R,5S)-4-(7-(3,5-difluorophenyl)-5-(trifluoromethyl)-7H-pyrrolo[2,3-d]pyrimidin-4-yl)-2,5-dimethylpiperazine-1-carboxylate] |
| < 100 | < 100 | < 100 |  |  |  | C[C@@H]1CN(c2ncnc3c2c(OC(F)(F)F)cn3-c2cc(C#N)ccn2)[C@@H](C)CN1C(=O)OC(C)(C)C [Compound 524, tert-butyl (2R,5S)-4-(7-(4-cyanopyridin-2-yl)-5-(trifluoromethoxy)-7H-pyrrolo[2,3-d]pyrimidin-4-yl)-2,5-dimethylpiperazine-1-carboxylate] |
| < 100 | < 100 | < 100 |  |  |  | [2H]C([2H])([2H])C(OC(=O)N1C[C@H](C)N(c2ncnc3c2c(C(F)(F)F)cn3-c2cc(C#N)ccn2)C[C@H]1C)(C([2H])([2H])[2H])C([2H])([2H])[2H] [Compound 518, 2-(methyl-d3)propan-2-yl-1,1,1,3,3,3-d6 (2R,5S)-4-(7-(4-cyanopyridin-2-yl)-5-(trifluoromethyl)-7H-pyrrolo[2,3-d]pyrimidin-4-yl)-2,5-dimethylpiperazine-1-carboxylate] |
|  |  |  | < 100 | < 100 | < 100 | C[C@H]1CN(C(=O)OC(C)(C)C)CCN1c1ncnc2c1c(N1CCCCC1)cn2-c1cccc(Cl)c1 [Compound 310, tert-butyl (S)-4-(7-(3-chlorophenyl)-5-(piperidin-1-yl)-7H-pyrrolo[2,3-d]pyrimidin-4-yl)-3-methylpiperazine-1-carboxylate] |
|  |  |  | 100 to 500 | < 100 | < 100 | C[C@H]1CN(C(=O)OC(C)(C)C)CCN1c1ncnc2c1c(-c1ccccc1F)cn2-c1ccccn1 [Compound 231, tert-butyl (S)-4-(5-(2-fluorophenyl)-7-(pyridin-2-yl)-7H-pyrrolo[2,3-d]pyrimidin-4-yl)-3-methylpiperazine-1-carboxylate] |
|  |  |  | 500 to 2000 | < 100 | < 100 | C[C@H]1CN(C(=O)OC(C)(C)C(F)(F)F)CCN1c1ncnc2c1c(C1CC1)cn2-c1cccc(C#N)c1 [Compound 266, 1,1,1-trifluoro-2-methylpropan-2-yl (S)-4-(7-(3-cyanophenyl)-5-cyclopropyl-7H-pyrrolo[2,3-d]pyrimidin-4-yl)-3-methylpiperazine-1-carboxylate] |
|  |  |  | 500 to 2000 | 100 to 500 | 100 to 500 | COc1cncc(-n2cc(-c3ccccc3F)c3c(N4CCN(C(=O)OC(C)(C)C)CC4)ncnc32)c1 [Compound 103, tert-butyl 4-(5-(2-fluorophenyl)-7-(5-methoxypyridin-3-yl)-7H-pyrrolo[2,3-d]pyrimidin-4-yl)piperazine-1-carboxylate] |
|  |  |  | 500 to 2000 | 100 to 500 | < 100 | C[C@H]1CN(C(=O)OC(C)(C)C)CCN1c1ncnc2c1c(-n1cccn1)cn2-c1cccc(Cl)c1 [Compound 322, tert-butyl (S)-4-(7-(3-chlorophenyl)-5-(1H-pyrazol-1-yl)-7H-pyrrolo[2,3-d]pyrimidin-4-yl)-3-methylpiperazine-1-carboxylate] |
|  |  |  | 100 to 500 | 500 to 2000 | < 100 | C[C@@H]1CN(C(=O)OC(C)(C)C)CCN1c1ncnc2c1c(-c1ccccc1F)cn2-c1cc(C#N)ccn1 [Compound 389, tert-butyl (R)-4-(7-(4-cyanopyridin-2-yl)-5-(2-fluorophenyl)-7H-pyrrolo[2,3-d]pyrimidin-4-yl)-3-methylpiperazine-1-carboxylate] |
